Laboratory results published in ChEMBL document CHEMBL1146704, “(2-amino-phenyl)-amides of omega-substituted alkanoic acids as new histone deacetylase inhibitors” (Bioorg Med Chem Lett, 2004).
Activity calls are given as the source filed them. The rule behind the calls is not given here.

How the values were obtained:
Histone deacetylase = assay: Effect on induced hyperacetylation of histones in whole cells; type: functional, cell-based, Homo sapiens
Histone deacetylase 1 = Histone deacetylase 1 (Homo sapiens, UniProt Q13547)
Chain of Histone deacetylase 1 (Q13547 whole entry): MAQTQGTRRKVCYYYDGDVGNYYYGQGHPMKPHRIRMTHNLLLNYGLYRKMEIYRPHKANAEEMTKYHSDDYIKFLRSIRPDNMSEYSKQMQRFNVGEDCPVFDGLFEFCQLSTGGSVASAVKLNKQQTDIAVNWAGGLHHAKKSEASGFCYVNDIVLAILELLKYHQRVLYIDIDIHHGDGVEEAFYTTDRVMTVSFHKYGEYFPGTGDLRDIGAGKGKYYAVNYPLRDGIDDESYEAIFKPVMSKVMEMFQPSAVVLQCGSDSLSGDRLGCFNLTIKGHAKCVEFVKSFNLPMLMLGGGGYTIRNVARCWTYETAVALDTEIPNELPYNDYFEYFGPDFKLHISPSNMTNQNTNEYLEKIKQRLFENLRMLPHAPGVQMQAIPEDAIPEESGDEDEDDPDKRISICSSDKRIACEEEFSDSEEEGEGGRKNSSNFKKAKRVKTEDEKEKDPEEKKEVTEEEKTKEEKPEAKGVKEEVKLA
Description: Ability to inhibit recombinant human histone deacetylase 1 (HDAC-1).

HCT-116 = assay: In vitro antiproliferative activity against human cancer cell line HCT116 using MTT assay; type: functional, cell-based
DU-145 = assay: In vivo inhibitory activity against human DU145 prostate tumor; Active; details: Prostate gland
A549 = assay: In vivo inhibitory activity against human A549 non-small cell lung tumor; Active
SW48 = assay: In vivo inhibitory activity against human SW48 colon tumor; Active
PANC-1 = assay: […] inhibitory activity against human PANC-1 pancreatic tumor; Active; type: functional
COLO 205 = assay: In vivo inhibitory activity against human COLO 205 tumor; Active
[1] = Compound was tested for tumor growth inhibition relative to control; type: functional

Row | EC50 (Histone deacetylase) [µM] | IC50 (Histone deacetylase 1) [µM] | IC50 (HCT-116) [µM] | SMILES | Activity (DU-145) | Activity (A549) | Activity (SW48) | Activity (PANC-1) | Activity (COLO 205) | TGI [1] [%]
1 | 15 | 6 | 20 | Nc1ccccc1NC(=O)CCCCCCC(=O)c1ccc(Br)cc1 | – | – | – | – | – | –
2 | 2 | 0.5 | 1 | Nc1ccccc1NC(=O)CCCCCN1C(=O)c2cccc3c(CN4CCOCC4)c(O)cc(c23)C1=O | Active | Active | Active | Active | Active | –
3 | 10 | – | 6 | Nc1ccccc1NC(=O)CCCCCN1C(=O)c2cccc3c(Br)ccc(c23)C1=O | – | – | – | – | – | –
4 | 3 | 3 | 2 | Nc1ccccc1NC(=O)CCCCCN1C(=O)c2cccc3cccc(c23)C1=O | Active | Active | Active | Active | Active | –
5 | 5 | 3 | 5 | Nc1ccccc1NC(=O)CCCCCCC(=O)c1ccc(-c2ccccc2)nc1 | Active | Active | Active | Active | Active | –
6 | > 25 | – | > 47 | Nc1ccccc1NC(=O)CCCCCN1C(=O)c2cccnc2C1=O | – | – | – | – | – | –
7 | 10 | 2 | 7 | Nc1ccccc1NC(=O)CCCCCCC(=O)c1ccc(-c2ccccc2)cc1 | Active | Active | Active | Active | Active | 53
8 | – | 4 | 12 | Nc1ccccc1NC(=O)CCCCCN1C(=O)c2cc(O)c(CN3CCOCC3)cc2C1=O | – | – | – | – | – | –
9 | 3 | – | 6 | Cc1ccc2c(c1)C(=O)N(CCCCCC(=O)Nc1ccccc1N)C2=O | – | – | – | – | – | –
10 | – | – | 10 | Nc1ccccc1NC(=O)CCCCCn1cnc2ccccc2c1=O | – | – | – | – | – | –
11 | – | 4 | 5 | Cn1c(=O)n(CCCCCC(=O)Nc2ccccc2N)c(=O)c2ccccc21 | – | – | – | – | – | –
12 | – | – | 0.5 | Nc1ccccc1NC(=O)c1ccc(CNC(=O)OCc2cccnc2)cc1 [ENTINOSTAT] | – | – | – | – | – | –
13 | 10 | 8 | 10 | Nc1ccccc1NC(=O)CCCCCn1nnc2ccccc2c1=O | – | – | – | – | – | –
14 | – | – | 31 | Nc1ccccc1NC(=O)CCCCCN1C(=O)c2cc(O)c(CN3CCCCC3)cc2C1=O | – | – | – | – | – | –
15 | 5 | 5 | 21 | COc1ccc(C(=O)CCCCCCC(=O)Nc2ccccc2N)cc1 | – | – | – | – | – | –
16 | 10 | 4 | 5 | Nc1ccccc1NC(=O)CCCCCn1c(=O)[nH]c2ccccc2c1=O | – | – | – | – | – | –
17 | 99 | – | 15 | Nc1ccccc1NC(=O)CCCCCN1Cc2ccccc2C1=O | – | – | – | – | – | –
18 | 3 | 4 | 4 | COc1ccc(-c2ccc(C(=O)CCCCCCC(=O)Nc3ccccc3N)cc2)cc1OC | – | – | – | – | – | –
19 | 5 | 2 | 24 | Nc1ccccc1NC(=O)CCCCCN1C(=O)c2ccccc2C1=O | – | – | – | – | – | –
20 | 20 | 10 | 19 | Nc1ccccc1NC(=O)CCCCCCC(=O)c1ccc(-c2cccnc2)cc1 | – | – | – | – | – | –
21 | 1 | – | 1 | Nc1ccccc1NC(=O)CCCCCN1C(=O)c2cccc3c(CN4CCCCC4)c(O)cc(c23)C1=O | – | – | – | – | – | –
22 | 25 | 9 | > 25 | Nc1ccccc1NC(=O)CCCCCCC(=O)c1ccccc1 | – | – | – | – | – | –
23 | 25 | 1 | 12 | Nc1ccccc1NC(=O)CCCCCCC(=O)c1cccc(-c2ccccc2)c1 | – | – | – | – | – | –
24 | 25 | 2 | 9 | Nc1ccccc1NC(=O)CCCCCCC(=O)c1ccc2ccccc2c1 | – | – | – | – | – | –
25 | – | – | 0.9 | Nc1ccccc1NC(=O)CCCCCN1C(=O)c2cccc3cc(O)cc(c23)C1=O | Active | Active | Active | Active | Active | 28
26 | 10 | – | 11 | Nc1ccccc1NC(=O)CCCCCN1C(=O)c2ccc(O)cc2C1=O | – | – | – | – | – | –
